A short description of data set [1]: Theophylline Cl, K and V predicted by bioelectrical impedance (multiple regression), and dose calculated from predicted Cl. More on the design: species or system human. To be noted: two-sided t-test. The text has this: An excitation current of 800 microamps and frequency of 50 kHz was then applied and (R) and (Xc) values obtained.
The independent variables set forth in Table VII were used in a stepwise multiple linear regression program to produce the models of best definition for (Cl), (K) and (V) by entering each patients individual variables (Cl), (V) and (K) into the program. It then fits a linear least-squares regression model to the entire set of independent variables to identify the best independent variables and their coefficients for the description of the […] dependent variables (Cl), (K) and (V). Insignificant variables were dropped from the model. The equations generated are those set forth previously as Equation 3, Equation 4 and Equation 5.
Other internationally recognized programs could also be used and may include BMDP (Biomedical Data Processing) and SPSS (Statistical Programming for the Social Sciences).
In Table VIII, clearance (Cl), elimination rate constant (K), and volume of distribution (V), determined for theophylline using a multiple regression analysis produced F variable sequence defined in Tables VII and IX are shown in columns B, D, and F, respectively. Table VII is the model sequence used to solve for (Cl), (K) and (V) as derived by stepwise regression analysis. […]

A short description of data set [2]: Theophylline pharmacokinetics in fifteen normal adult males from serum concentrations (Lagran), and dose calculated from measured Cl. Format: in vivo, human. From the text:
Fifteen normal adult males were used in the following study. Each subject was given a single intravenous dosage of theophylline.
Serial blood samples were obtained, for all fifteen patients, from an intravenous catheter placed in the arm.
F=1.0, assuming 100% oral absorption

A short description of data set [3]: Gentamicin K and V predicted by bioelectrical impedance (multiple regression), and dosage regimen calculated from predicted K, V. Set-up: species or system human. To be noted: two-sided T-test. As for the experimental part:
Twelve human subjects participated in the following study. The resistance (R) and the reactance (Xc) of each patient was measured using a four-terminal impedance plethysmograph. During the measurement, the subjects were placed in the supine position on an insulative surface. The electrodes were attached in the following manner. Those areas of the patient's skin where the electrodes were to be connected were cleaned thoroughly with alcohol. The four pre-gelled electrodes were then attached to the patient such that one current electrode was attached to the dorsal surface of the patient's right hand at the distal metacarpals, one current electrode was attached to the patient's right foot at the location of the distal metatarsals, one detector electrode was connected to the patients right wrist at the right pisiform prominence, and one detector electrode was connected to the patient's right ankle between the medial and lateral malleoli. An excitation current of 800 microamps and frequency of 50 kHz was then applied and R and Xc values obtained. […]
(§1) Calculation of (K) and (V) from the measured serum concentration data was performed as were the dosage regimens using the measured serum concentration data by the equations of Sawchuk and Zaske which will be known to those skilled in the art.

Data set [4] in a line: Simulation of gentamicin peak and trough serum concentrations for an average 70 kg patient. More on the design: species or system human. As for the experimental part:
Serum concentrations were then simulated for an average 70 kg patient given a one-hour infusion of the dose to achieve a postdose serum concentration of 6.0 mcg/ml and a predose serum concentration of 1.0 mcg/ml. This simulation was performed with the values of (K) and (V) determined by measured serum concentrations and the calculated dosage regimen from these measured (K) and (V) values, is recorded, respectively, in columns A and B of Table VI. A simulation was also performed with the dosage regimen determined by the bioelectrical impedance analysis of the present invention, using the patient's actual measured (K) and (V), to test the prediction error of the method of dosing of the present invention. Equations A and B which were discussed earlier were used for calculating dosing interval and dose. The latter is recorded respectively in columns C and D of Table VI.

For data set [5] the following is noted: human, in vivo, iv. As for the experimental part:
Twelve human subjects participated in the following study. The resistance (R) and the reactance (Xc) of each patient was measured using a four-terminal impedance plethysmograph. During the measurement, the subjects were placed in the supine position on an insulative surface. The electrodes were attached in the following manner. Those areas of the patient's skin where the electrodes were to be connected were cleaned thoroughly with alcohol. […]
The elimination rate constant was determined by nonlinear regression analysis of the serum concentration data for each patient using Micrononlin (Micrononlin, Elite Software, box 11223. Pittsburgh. PA 15238).
Volume of distribution was calculated by the Sawchuk-Zaske method.
as §1

Data on 2 molecules can be found in patent US4880014A, “Method for determining therapeutic drug dosage using bioelectrical resistance and reactance measurements” (priority 1988, dated 1989).

Broadly, the clearance is a measure of how efficiently the substance is removed, as volume per time.

Values joined by “and” are separate entries in the source; they are usually repeats but may differ in a detail not shown here. Equal values may be shown once.

For the molecule `Cn1c(=O)c2[nH]cnc2n(C)c1=O` [theophylline], the “Comparison of K, V, Cl and dosage regimens, bioelectrical impedance vs measured serum concentrations” value in data set [1] was “no statistically significant differences”. The clearance in data set [2] (human, serum, iv, 4 mg/kg, mean of fifteen subjects, column A, read-out: Clearance (Cl), Meas., MEAN (converted)) is 52.3 mL/min. In addition, in data set [2] (human, serum, iv, 4 mg/kg, mean of fifteen subjects, column C, read-out: Elimination Rate Constant (K), Meas., MEAN (converted)), the k el is 2.36e-05 s⁻¹. The Vd in data set [2] (human, serum, iv, 4 mg/kg, mean of fifteen subjects, column E, read-out: Volume of Distribution (V), Meas., MEAN) was 39.4 L. Besides, the “Elimination Rate Constant (K), Meas.” value in data set [2] (individual patients (Pt. 1-15), single intravenous 4 mg/kg, 30 minute infusion, column C) is “.0885 h and .0631 h and .0591 h and .0521 h and .0813 h and .0895 h and .1241 h and .0305 h and .1895 h and .0815 h and .0938 h and .0921 h and .0713 h and .0774 h”.

gentamicin: the “Comparison of K, V and dosage regimens, bioelectrical impedance vs measured serum concentration” value in data set [3] is reported as “no statistically significant differences”. The “Comparison of postdose or predose concentrations simulated from measured K, V vs bioelectrical impedance K, V” value in data set [4] is “no statistically significant differences”. Moreover, in data set [5], the “Elimination Rate Constant (K), Meas., mean” value is on record as “.270 hr -1” and the “Serum concentrations for all twelve patients” value was in the range of 2000 to 10000 ng/mL.
